Strand notation (5' to 3'): a small letter for the sugar, then the base; units joined by * are phosphorothioate-linked, units joined directly phosphodiester-linked; [ ] holds rarer units or linkages, { } end groups; capitals alone tell only the bases. k = constrained ethyl (cEt); [5mC] = 5-methylcytosine; d = 2'-deoxy (DNA)
Columns and labels:
[1] = Tolerability in Balb/c mice, plasma chemistry markers (Example 12); format: in vivo; details: 50 mg/kg subcutaneously twice a week for four weeks
Procedure: Balb/c mice were treated with modified oligonucleotides selected from studies described above and evaluated for changes in the levels of various plasma chemistry markers.
(§1) Groups of male Balb/c mice at 6-7 weeks of age (obtained from Taconic) were injected subcutaneously twice a week for four weeks (for a total of 8 treatments) with 50 mg/kg of modified oligonucleotides. One group of male Balb/c mice was injected with PBS. Mice were euthanized on day 26 post start of treatment (24 hours following the final administration).

[2] = test system: Yap1 mRNA; experiment: Dose-dependent inhibition of human Yap1 in A-431 cells (Example 6, 5,000 cells per well, RTS4814); format: cell-based; details: Table 53, A-431 cells
Outline: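 A-431 cells (5,000/well) took up oligonucleotides by free uptake at various doses for about 48 h. Yap1 mRNA was measured by RT-PCR (RTS4814), normalised to RIBOGREEN total RNA and expressed as % untreated control; IC50 by linear regression on a log/linear plot.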

[3] = Tolerability in Balb/c mice, body and organ weights (Example 11); format: in vivo; details: 50 mg/kg subcutaneously twice a week for four weeks, end of study
Procedure: as §1, with “4-6” for “6-7”
Body weights of Balb/c mice were measured at the end of the study, and the average body weight for each group is presented in the table below. Modified oligonucleotides that caused any changes in organ weights outside the expected range for modified oligonucleotides were excluded from further studies.

[4] = Tolerability in CD-1 mice, body and organ weights (Example 15); format: in vivo; details: male CD-1 mice, 50 mg/kg s.c. twice a week for four weeks (8 treatments), end of study (day 26)
Procedure: Groups of four male CD-1 mice at 4-5 weeks of age (obtained from Charles River) were injected subcutaneously twice a week for four weeks (for a total of 8 treatments) with 50 mg/kg of modified oligonucleotides. One group of male CD-1 mice was injected with PBS. Mice were euthanized on day 26 post start of treatment (24 hrs following the final administration).
Body weights of CD-1 mice were measured at the end of the study, and the average body weight for each group is presented in the table below. Modified oligonucleotides that caused any changes in organ weights outside the expected range for modified oligonucleotides were excluded from further studies.

[5] = test system: subcutaneous DEN carcinomas; experiment: Tumor volume in DEN-HCC model, in combination with a-PD1 antibody (Example 49); format: in vivo, C57BL/6 mice; details: for Average Tumor Volume: DEN-HCC subcutaneous model, C57BL/6 mice
Procedure: N-nitrosodiethylamine (DEN) is administered at 25 mg/kg into 15 day old C57/BL6 mice. Carcinomas form 6 months post injection. After formation, carcinomas were then dissected from the liver and passaged subcutaneously into C57BL/6 male mice at 4-6 weeks of age to establish a subcutaneous model. For this experiment, mice were passaged with P8 subcutaneously established DEN carcinomas, rendering P9 for the duration of the experiment. Subcutaneous carcinomas are found to form at 4-6 weeks post implantation. Modified oligonucleotides 792169 (control compound) and 715491 (YAP-1 targeting modified oligonucleotide) were treated subcutaneously into groups of 7-8 mice at 10 mg/kg/week 5 times a week for 11 weeks (total of 55 doses). The PBS-only treated group and the control group were treated 5 times a week for 4 weeks (total of 20 doses). α-PD1 antibody (BioXCell) was treated intraperitoneally at 10 mg/kg/week twice a week for 4 weeks (total of 8 doses). F.D. refers to mice that were sacrificed because their tumor volume became too large.

Which ALT [1] does the source give for “958499 (ATTAGAGTATGTGGCA; 3-10-3 cEt gapmer, further chemistry not given here) [compound 958499]” here?
Its ALT is 142 U/L.

And the AST [1]?
The AST was 146 U/L.

And the BUN [1]?
Its BUN is 26 mg/dL.

What about the TBIL [1] of the same substance?
Its TBIL is 0.17 mg/dL.

What does the source list for “715487 (kA*kT*kT*dA*d[5mC]*dT*dT*d[5mC]*dA*dT*dA*dG*d[5mC]*kT*kT*kA) [compound 715487]”?
IC50 ([2]; Yap1 mRNA, linear regression on a log/linear plot): 1000 nM; % UTC 148 nM ([2]; free uptake, 148 nM, approximately 48 hours, RTS4814): 87 % UTC; % UTC 444 nM ([2]; free uptake, 444 nM, approximately 48 hours, RTS4814): 56 % UTC; % UTC 1333 nM ([2]; free uptake, 1333 nM, approximately 48 hours, RTS4814): 48 % UTC; % UTC 4000 nM ([2]; free uptake, 4000 nM, approximately 48 hours, RTS4814): 29 % UTC; Kidney weight [3]: 0.42 g; Liver weight [3]: 1.46 g; Spleen weight [3]: 0.15 g; body weight [3]: 27 g; Kidney weight [4]: 0.59 g; Liver weight [4]: 2.24 g; Spleen weight [4]: 0.21 g; body weight [4]: 41 g

For “CGCCGATAAGGTACAC (cEt gapmer, phosphorothioate backbone, further chemistry not given here) [ION 792169, reference compound]”, which “Average Tumor Volume” value ([5]; day 1 on treatment) is on record?
The value was 354 mm3.

What about the “Average Tumor Volume” value ([5]; day 5 on treatment) of the same substance?
Its value is 376 mm3.

What about the “Average Tumor Volume” value ([5]; day 8 on treatment) of the same substance?
The value was 414 mm3.

What about the “Average Tumor Volume” value ([5]; day 11 on treatment) of the same substance?
Its value is 523 mm3.

What about the “Average Tumor Volume” value ([5]; day 15 on treatment) of the same substance?
Its value is 604 mm3.

And the “Average Tumor Volume” value ([5]; day 18 on treatment)?
The value was 633 mm3.

And the “Average Tumor Volume” value ([5]; day 23 on treatment)?
Its value is 773 mm3.

What about the “Average Tumor Volume” value ([5]; day 25 on treatment) of the same substance?
Its value is 864 mm3.

And the “Average Tumor Volume” value ([5]; day 28 on treatment)?
The value was 802 mm3.

And the “Average Tumor Volume” value ([5]; day 31 on treatment)?
The value was “F.D”.

And the “Average Tumor Volume” value ([5]; day 35 on treatment)?
Its value is “F.D”.

And the “Average Tumor Volume” value ([5]; day 38 on treatment)?
The value was “F.D”.

And the “Average Tumor Volume” value ([5]; day 43 on treatment)?
The value was “F.D”.

And the “Average Tumor Volume” value ([5]; day 45 on treatment)?
The value was “F.D”.

And the “Average Tumor Volume” value ([5]; day 49 on treatment)?
Its value is “F.D”.

What about the “Average Tumor Volume” value ([5]; day 54 on treatment) of the same substance?
The value was “F.D”.

What about the “Average Tumor Volume” value ([5]; day 58 on treatment) of the same substance?
The value was “F.D”.

And the “Average Tumor Volume” value ([5]; day 61 on treatment)?
The value was “F.D”.

And the “Average Tumor Volume” value ([5]; day 65 on treatment)?
The value was “F.D”.

And the “Average Tumor Volume” value ([5]; day 68 on treatment)?
Its value is “F.D”.

What about the “Average Tumor Volume” value ([5]; day 72 on treatment) of the same substance?
Its value is “F.D”.

And the “Average Tumor Volume” value ([5]; day 75 on treatment)?
Its value is “F.D”.

And the “Average Tumor Volume” value ([5]; day 79 on treatment)?
Its value is “F.D”.

And the “tumor volume (outcome in words)” value ([5]; subcutaneous DEN carcinomas in C57BL/6 male mice, 10 mg/kg/week, oligonucleotide subcutaneously, antibody intraperitoneally)?
Its value is “sacrificed before the end of the experiment because their tumor volume became too large”.
